According to article PMC8318231, “Rate-of-Kill (RoK) assays to triage large compound sets for Chagas disease drug discovery: Application to GSK Chagas Box” (PLoS Neglected Tropical Diseases, 2021):

Columns and labels:
[1] = system: T. cruzi intracellular amastigotes in H9c2 cells; assay: RoK combination assay with BNZ; type: cell-based, Trypanosoma cruzi; conditions: 50 μM BNZ
Method: The assay was performed following the same experimental procedure mentioned above in the RoK assay. The infected H9c2 cells were treated with final 10 and 50 μM concentrations of BNZ and DMSO before being dispensed into the plates containing the compounds. For the combination with 50 μM BNZ, two plates were incubated for 4 and 24 hours respectively before being fixed. For the combinations with 10 μM BNZ and with DMSO, four plates for each condition were incubated for 4, 24, 48 and 72 hours before being fixed.

[2] = parameters: method as in PMID 25805302; conditions: cited from earlier work
[3] = system: H9c2 (rat cardiomyocytes); assay: RoK assay, number of host cells nuclei (drug-related cytotoxicity, H9c2 output, Cmin_Tox); conditions: H9c2 host cells
Method: For this high-content intracellular imaging assay, H9c2 cells were seeded in 225 cm^2 T- FLASK in DMEM with 10% FBS for 4 h to allow attachment. T. cruzi trypomastigotes, collected at days 5 to 8 after infection from LLC-MK2 parasite infected cultures, were allowed to swim out for 4 h at 37°C from a centrifuged pellet (1,600 x g / 10 min). Trypomastigotes were then collected and counted in a CASY Cell Counter using the 60 μm capillary. […] Cells were washed once with PBS before incubation of the infected H9c2 monolayer with trypsin (Life-Technologies) to detach cells from the flask. Cells were counted in a CASY Cell Counter, using the 150 μm capillary, and their density set at 5 x 10^4 cells/mL in supplemented DMEM. Infected H9c2 were dispensed into 384-well plates at 50 μL per well using a Multidrop Combi dispenser. Control wells used to determine a 100% parasitic growth (full 6th column of each plate) were left untreated, whereas not infected cells were added in the control wells used as 0% parasite growth (or 100% parasite growth inhibition; full 18th column of each plate). The four plates corresponding to each RoK assay were predispensed for the same mother plate. […] Cultures were then fixed and stained with 50 μL per well of a PBS solution containing 4% formaldehyde and 2 μM DRAQ5 DNA dye (BioStatus, UK). Then plates were read in a PerkinElmer Opera Phenix using a 20x objective, 3 fields per well. DRAQ5 signal was detected using 640 nm excitation laser and a 690/50 nm emission detection filter. Automated image analysis was performed with a script developed on Acapella High Content Imaging and Analysis Software (PerkinElmer). Two outputs were provided for each sample well: (1) number of host cells nuclei to determine drug-related cytotoxicity (aka H9c2) and (2) number of amastigotes per cell as infection level measurement (aka AM/CELL). Each output is plotted as a time course for each compound at every concentration. This assay was adapted from Alonso-Padilla et al. and Peña et al..
• ME (Maximum Effect) is the maximum percentage of parasite burden reduction reached by any compound concentration. Compounds that decrease the initial parasite load will show a positive value of ME, whereas compounds that allow the progression of infection will render a negative ME value. […] It is calculated for the MCC50 (t50%_MCC50) and for the maximum concentration (t50%_Cmax). […] The value of this parameter is not either interpolated or extrapolated, and it refers to the first experimental time-course point at which a 50% of effect is reached or exceeded. • tlag defines the time elapsed for one particular concentration to reduce parasite burden between two consecutive points at any moment of the time course. It is calculated for the MCC50 (tlag_MCC50) and for the maximum concentration (tlag_Cmax). The value of this parameter is not either interpolated or extrapolated, and it refers to the first experimental time-course point of a positive slope in the normalised plot (i.e. %Cidal_Response). • Cmin_Tox (Minimal CytoToxic Concentration) is the lowest compound concentration that is reducing the number of host mammalian cells below 50% of initial cell density. Cytotoxic compounds may mislead a bona fide antiparasitic action. Therefore, this descriptor is used to flag this kind of compounds and warn about the genuine meaning of the rest of descriptors.

[4] = system: Trypanosoma cruzi; conditions: cited from earlier work

O=C(Cn1ccnc1[N+](=O)[O-])NCc1ccccc1 [Benznidazole, benznidazole, reference compound]
AM/CELL ([1]; no compound 1, 4 hours): 2.023 | AM/CELL ([1]; no compound 1, 24 hours): 1.3207 | average time to interruption of treatment [2]: 26.7 days | Cmin_Tox [3]: >50 µM

CC[C@@H]([C@H](C)O)n1ncn(-c2ccc(N3CCN(c4ccc(OC[C@@H]5CO[C@@](Cn6cncn6)(c6ccc(F)cc6F)C5)cc4)CC3)cc2)c1=O [Posaconazole, reference compound]
Cmin_Tox [3]: 42.2 µM | curative dose in mice [4]: 20 mg/kg/day

CN(Cc1ccc(C(N)=O)cc1)C(c1ccc(F)cc1)c1cccnc1 (stereo not drawn) [TCMDC-143504]
Cmin_Tox [3]: >50 µM

O=C(C1CCCCC1)N1CCN(c2nnc(-c3ccccc3)c3ccccc23)CC1 [TCMDC-143511]
Cmin_Tox [3]: >50 µM

CN(C(=O)Nc1ccc2c(c1)CCN(C1CCC1)CC2)c1ccc(C#N)cc1.Cl [TCMDC-143526]
Cmin_Tox [3]: >50 µM

CC(CNS(=O)(=O)c1ccc(OC(F)F)cc1)c1ccc(NC(=O)c2ccncc2)cc1 (stereo not drawn) [TCMDC-143535]
Cmin_Tox [3]: >50 µM

Cn1cc(CN2CCN(c3ccc4c(c3)CCN(C(=O)[C@H]3C[C@@H]3c3ccccc3)CC4)CC2)cn1 [TCMDC-143537]
Cmin_Tox [3]: >50 µM

O=C(CN(c1cccc(C(F)(F)F)c1)S(=O)(=O)c1ccc(Cl)cc1)NCc1ccc(F)c(F)c1 [TCMDC-143548]
Cmin_Tox [3]: >50 µM

COc1ccc(S(=O)(=O)NCc2ccc(-c3ccc(CN(C)CCO)cc3)cc2)cc1.O=C(O)C(F)(F)F [TCMDC-143549]
Cmin_Tox [3]: >50 µM

CCCN1CCN(Cc2ccc(S(=O)(=O)Nc3cccc(C)c3)cc2)CC1.O=C(O)C(F)(F)F.O=C(O)C(F)(F)F [TCMDC-143550]
Cmin_Tox [3]: >50 µM

O=C(CSc1ccc(-c2ccccn2)nn1)Nc1ccc(Cl)cc1 [TCMDC-143552]
Cmin_Tox [3]: >50 µM

c1ccc2c(CCOc3nccnc3-c3ccncc3)c[nH]c2c1 [TCMDC-143562]
Cmin_Tox [3]: >50 µM

O=C(Nc1ccc(Br)c(Cl)c1)Nc1ccc2c(c1)OCO2 [TCMDC-143588]
Cmin_Tox [3]: >50 µM

COc1cccc(C(=O)[C@H]2C[C@@H]2CN(Cc2cccnc2)Cc2cccnc2)c1 [TCMDC-143593]
Cmin_Tox [3]: >50 µM

Clc1ccc(Sc2cnccc2N2CCOCC2)cc1 [TCMDC-143602]
Cmin_Tox [3]: >50 µM

N#Cc1cc(N2CCCC2=O)ccc1Sc1ccccc1CO [TCMDC-143604]
Cmin_Tox [3]: >50 µM

CCCc1nc2nc(N)nc(N)c2cc1CC [TCMDC-143606]
Cmin_Tox [3]: >50 µM

COc1ccccc1-c1c(C)[nH]c2nc(N)nc(C)c12 [TCMDC-143610]
Cmin_Tox [3]: >50 µM

CCCCNc1nccc(-c2c(-c3ccc(F)cc3)nn3c(N4CCOCC4)cccc23)n1 [TCMDC-143617]
Cmin_Tox [3]: >50 µM

CN(C)CCOc1ccc(N2CCN(S(=O)(=O)c3ccc(Cl)cc3)CC2)cc1 [TCMDC-143622]
Cmin_Tox [3]: >50 µM

CN(C)Cc1ccc(N2CCC(NS(=O)(=O)c3ccc(Cl)cc3)CC2)cc1 [TCMDC-143623]
Cmin_Tox [3]: 25.3 µM

O=c1[nH]ccc2ccc(-c3ccncc3)cc12 [TCMDC-143631]
Cmin_Tox [3]: >50 µM

O=C(O)/C=C\C(=O)O.O=C(c1ccc(OCCCc2cnc[nH]2)cc1)C1CC1 [TCMDC-143632]
Cmin_Tox [3]: >50 µM
